Results: patent publication US10849922B2, “Treatments for retinal disorders” (Cornell University, priority 2011, dated 2020)

What was measured:
A2E oxidation assay = details: A2E 5 μM in water, 48 hours, RT in the dark, cyclodextrin 10-100 mM
Description: Solutions containing increasing amounts of Poly Beta-CD (0 mM to 100 mM) were prepared in water, and A2E was added to a final concentration of 5 μM. The solutions were incubated at RT in the dark. 48 hrs later, the UV-visible absorption spectra between 300 and 700 nm was analyzed to determine the oxidative status of A2E. […] These bands can be assigned to the shorter (S) and longer (L) arms of A2E, respectively. Oxidation of a carbon-carbon double bond is accompanied by a hypsochromic shift. A hypsochromic shift in band S corresponds with oxidation on the short arm; a blue-shift in band L reflects oxidation on the long arm; hypsochromic shifts in both peaks indicates oxidation on both side arms (Jang Y. P. et al., J. Biol. Chem., 2005, 280(48):39732-9). The results shown in FIG. 12A indicate that under this aqueous environment A2E oxidizes.

A2E aggregation assay = details: A2E 25 μM aqueous solution
Source text: A2E aggregates are believed to have a role in RPE cell death. This study investigated whether cyclic oligosaccharides dissolve A2E aggregates that form in aqueous phase. The following can be deduced from FIG. 13:
[…] After three days, the liquid in each chamber was harvested and analyzed with a spectrofluorometer to detect the presence of A2E. Only inserts with 3 μm pores allowed A2E to diffuse through.
The presence of A2E on each side was established by fluorescence scanning between 530-700 nm using 434 nm as the excitation wavelength.

[1] = Fluorescence comparison of cyclodextrin binding to DHE; details: fluorescence spectra changes as a function of added β-CD concentration
Source text: The binding of A2E and DHE (fluorescent cholesterol analog to cyclodextrins) has been herein investigated by using the assay method described above. […] The determination of affinity constants and stoichiometry for new inclusion complexes can be complex, particularly when the molecular ratio host:guest is bigger than 1. For cholesterol, however, the affinity constants, stoichiometry, molecular structure, and applications of many of its inclusion complexes with cyclic oligosaccharides have been well established. In this context, the side-by-side comparation of A2E and cholesterol complex formation with the same cyclic oligosaccharide serves as an immediate reference to evaluate the quality of the inclusion complex with A2E, as well as help in the determination of its affinity constant, stoichiometry, and structure.

[2] = A2E fluorescence assay for molecules able to encapsulate A2E (AUC ratio); format: binding; details: fluorescence spectra changes as a function of added β-CD concentration
Description: In the assay method, at least two solutions containing a lipofuscin bisretinoid lipid are first provided, and the at least two solutions should be substantially the same in all respects, such as in the type of lipofuscin bisretinoid lipid, the concentration of lipofuscin bisretinoid lipid, and the solvent composition. A candidate compound is then added to at least one of the solutions. Fluorescence spectra of the two solutions (i.e., a first solution not containing the candidate compound and a second solution containing the candidate compound) is then measured at an excitation wavelength (e.g., 434 nm or other suitable excitation wavelength) that causes fluorescence of the lipofuscin bisretinoid lipid in the range of 530 nm and 700 nm, or any suitable sub-range therein. An area under the curve (AUC) is then determined for corresponding spectral curves of the first and second solutions within the range of 530 nm and 700 nm or a sub-range therein. […] A ratio of the AUC of the second solution (containing the candidate compound) over the AUC of the first solution (not containing the candidate compound) is then calculated. […]
The fluorescence spectra were immediately determined (although it was stable for several days) between 530 and 700 nm using a 434 nm excitation wavelength. […] The area under the resulting spectral fluorescence curve was determined with statistical software (Prism4, GraphPad). […]

DKO mice = assay: Fluorescence microscopy of cryosected retinas of DKO mice after subtenon injection; format: in vivo; details: single subtenon injection 4000 mg/kg, after 48 hours; for retinal detachment in cryosected retinas: 4000 mg/kg
Description: FIG. 18. Micrographs showing the fluorescence of cryosected retinas of 8-months old WT and DKO mice. The micrographs obtained from (A) a normal mouse, (B) DKO animals not treated with methyl beta-CD, and (C) DKO animals treated with methyl beta-CD. The DKO animals have strong autofluorescence in the RPE layer compared with WT as well as retinal detachment (size shown by arrow). Single subtenon administration of methyl Beta CD (4000 mg/kg) reduced both RPE autofluorescence and retinal detachment.
The retinas of wild type and DKO animals were analyzed by fluorescence microscopy with the following procedure. Briefly wild type and DKO animals were mock-treated or treated with a single subtenon injection with either vehicle or with methyl beta-cyclodextrin (4000 mg/kg). After 48 hours the eyes were enucleated, fixed, and cryosected. For viewing, 10-micron thick sections were blocked and stained with the red-fluorescently labeled lectin PNA to identify cones in the photoreceptor outer segments (PROS), and blue DAPI nuclear stain to identify the nuclei. In the gray scale micrograph of FIG. 18 (Panel A), the red and blue stains are not distinguishable, so the red fluorescence is labeled PROS and the lighter autofluorescent RPE is also labeled.

eyecups from DKO mice = assay: In vitro assay on eyecups of DKO mice; details: 2 mM cyclodextrin, 36 hours of culture
Description: FIGS. 17A, 17B. […] The resulting eyecups were in vitro treated with cyclodextrins for 36 hrs before observing them under the microscope (FIG. 17B).
Eyecups comprise the dark pigmented RPE, choriocapillaries, as well as the grayish sclera. Eyecups were incubated in complete media containing, or not, 2 mM cyclodextrins. After 36 hours of culture, eyecups were flat mounted on glasses and fluorescence was analyzed in the microscope.

[3] = cited from earlier work

For `OC[C@H]1O[C@@H]2O[C@H]3[C@H](O)[C@@H](O)[C@@H](O[C@H]4[C@H](O)[C@@H](O)[C@@H](O[C@H]5[C@H](O)[C@@H](O)[C@@H](O[C@H]6[C@H](O)[C@@H](O)[C@@H](O[C@H]7[C@H](O)[C@@H](O)[C@@H](O[C@H]8[C@H](O)[C@@H](O)[C@@H](O[C@H]1[C@H](O)[C@H]2O)O[C@@H]8CO)O[C@@H]7CO)O[C@@H]6CO)O[C@@H]5CO)O[C@@H]4CO)O[C@@H]3CO` [Compound 4, β-cyclodextrin], the “oxidation of A2E (UV-visible absorption spectra)” value (A2E oxidation assay) was “oxidation of A2E was not observed”, the “dissolution of A2E aggregates in aqueous phase (diffusion through 0.2 μm pores)” value (A2E aggregation assay) was “dissolved the A2E aggregates” and the “formation of inclusion complex with DHE” value [1] was “formation of DHE-β-CD”. For the same compound, the “formation of inclusion complex with A2E” value [2] was “A2E-β-CD inclusion complexes”.
In the case of Methyl-β-cyclodextrin [Compound 5], the “RPE autofluorescence (bisretinoids) in cryosected retinas” value (DKO mice) was “reduced”, the “retinal detachment in cryosected retinas” value (DKO mice; listed as methyl Beta CD) was “reduced” and the “retinal detachment in cryosected retinas” value (DKO mice; listed as methyl beta-cyclodextrin) was “reduced detachment”. The “fluorescence of eyecups (bisretinoids in RPE)” value (eyecups from DKO mice) was “lack of fluorescence”.
In the case of Triacetyl-β-cyclodextrin [Compound 12], the “solubility in water (in words)” value [3] is given as “insoluble”.
